# Laboratory results: patent US4968539A, “Liquid crystal membrane” (Lion Corporation, priority 1987, dated 1990)
# Like-named read-outs stand apart in the source and are kept apart here.
# What was measured:
# [1] = Amount of acetaminophen permeated through hairless rat skin with membrane, two-chamber diffusion cell; assay type: in vitro ADME, WBN/Kob hairless rats
# Procedure: The skin of the abdomen of WBN/Kob hairless rats ("Saitama" experimental animal) was taken under anesthesia (60 mg/kg pentobarbital, I.P.). A membrane sample prepared in the same manner as that of Example 3 was applied to the corneous layer-side of the skin specimens and they were placed in a glass two-chamber diffusion cell. 10% aqueous ethanol solution containing 2.4% of acetaminophen dissolved therein was placed in a donor-side chamber thereof and a phosphate buffer solution (pH 7.4) was placed in a receiver-side chamber. Increase in acetaminophen concentration in the receiver-side chamber with time was determined by HPLC.
# [2] = plaster of clonidine; American Heart Journal, 217-222, July (1984); cited from earlier work
# in vivo = experiment: in vivo; set-up: species or system white rabbits; details: rabbit
# Procedure: (§1) Hair was removed from the abdomen of a white rabbits weighing 2.0 to 2.5 kg with an electric clipper and the abdomen was then shaved with an electric razor carefully so as not to hurt the skin. A glass cell kept at a constant temperature by circulation of warm water was fixed thereon with a quick adhesive (Alon Alpha® of Toa Gosei Co.) through a membrane sample.
# (§2) A drug solution was placed in the glass cell and the concentration of the drug in the blood was determined at time intervals over 48 h. In this experiment, the blood sample was taken from the ear vein of the rabbit at given time intervals and the drug concentration was analyzed according to liquid chromatography.
# (§3) The polymer membrane and the drug solution used in this experiment were prepared as follows: in the example of the present invention, a polypropylene membrane (Celgard® 2402 having a port diameter of 0.02 μm and porosity of 38%) was immersed in 15% or 20% solution of polyoxyethylene(3 mol) trimethylolpropane tristearate (TPS-303® of Nippon Emulsion Co.) in chloroform for one hour and then air-dried to obtain the membrane. The drug solution used in this example was 50% aqueous N-methyl-2-pyrrolidone solution further containing 0.01 g/ml of indomethacin.
# In a comparative example, about 1 wt.% of indomethacin was mixed in 100 parts by weight of an ointment base comprising 40% of ethyl alcohol, 58.4% of water, 1.5% of a polycarboxylic acid (Carbopol 940® of Goodrich Chemical Co.) and 0.1% of triethanolamine to prepare an ointment. 3 g of the ointment was placed in the constant temperature glass cell. No polymer membrane was used.
# [3] = Ketoprofen concentration in the blood after application to rabbit abdomen; assay type: in vivo, white rabbits
# Procedure: as §1, §2, §3
# A change of the concentration of ketoprofen in the blood was investigated with the same polymer membrane in the same manner as those of Example 6 except that 3 ml of 30% aqueous ethanol solution in which 0.01 g/ml of ketoprofen had been suspended was used.
# [4] = Cumulative amount of nitroglycerin permeated through hairless rat skin, two-chamber diffusion cell; assay type: in vitro ADME; details: 38° C.
# Procedure: The same membrane sample as that of Example 2 and the same skin of hairless rat as that of Example 3 were mounted in the glass 2-chamber diffusion cell in the same manner as described above. 0.1% aqueous nitroglycerin solution was placed in the donor-side chamber and a phosphate buffer solution (pH 7.4) was placed in the receiver chamber. An increase of the concentration of nitroglycerin in the receiver chamber with time was determined by HPLC. As a control, only the skin free from the sample membrane was used in the experiment of the permeation of nitroglycerin through the skin. The experiment was conducted at 38° C.
# [5] = rabbit, blood, topical or ocular, 32° C., read-out: Concentration of drug in blood
# [6] = rabbit, blood, topical or ocular, 38° C., read-out: Concentration of drug in blood
structure (smiles),measurement,setting,value
CC(=O)Nc1ccc(O)cc1 [acetaminophen],Amount of drug permeated through the skin,"[1]; 32° C., 2 hr",0 μg/cm^2
same,Amount of drug permeated through the skin,"[1]; 32° C., 4 hr",0 μg/cm^2
same,Amount of drug permeated through the skin,"[1]; 32° C., 12 hr",0 μg/cm^2
same,Amount of drug permeated through the skin,"[1]; 32° C., 24 hr",2 μg/cm^2
same,Amount of drug permeated through the skin,"[1]; 32° C., 36 hr",5 μg/cm^2
same,Amount of drug permeated through the skin,"[1]; 38° C., 2 hr",1 μg/cm^2
same,Amount of drug permeated through the skin,"[1]; 38° C., 4 hr",3 μg/cm^2
same,Amount of drug permeated through the skin,"[1]; 38° C., 12 hr",60 μg/cm^2
same,Amount of drug permeated through the skin,"[1]; 38° C., 24 hr",170 μg/cm^2
same,Amount of drug permeated through the skin,"[1]; 38° C., 36 hr",330 μg/cm^2
Clc1cccc(Cl)c1N=C1NCCN1 [clonidine],Time to attain an effective concentration in the blood,[2],three
COc1ccc2c(c1)c(CC(=O)O)c(C)n2C(=O)c1ccc(Cl)cc1 [indomethacin],Concentration of drug in blood,in vivo; 360 min,0 ng/mL
same,Concentration of drug in blood,in vivo; 2880 min,0 ng/mL
same,Concentration of drug in blood,"in vivo; topical or ocular, 6 h",22 ng/mL
same,concentration at 6 h,"in vivo; topical or ocular, Concentration of drug in blood",20 ng/mL
CC(C(=O)O)c1cccc(C(=O)c2ccccc2)c1 (stereo not shown) [ketoprofen],Concentration of drug in blood,"[3]; 32° C., 6 hr",0 ng/mL
same,concentration at 24 h,[3]; [5],18 ng/mL
same,concentration at 48 h,[3]; [5],17 ng/mL
same,concentration at 6 h,"[3]; rabbit, blood, topical or ocular, 38° C., 6 hr, read-out: Concentration of drug in blood",740 ng/mL
same,concentration at 24 h,[3]; [6],410 ng/mL
same,concentration at 48 h,[3]; [6],300 ng/mL
O=[N+]([O-])OCC(CO[N+](=O)[O-])O[N+](=O)[O-] [nitroglycerin],Cumulative amount of permeated nitroglycerin,"[4]; With polymer membrane of the present invention, 2 h",26 μg/cm^2
same,Cumulative amount of permeated nitroglycerin,"[4]; With polymer membrane of the present invention, 4 hr",92 μg/cm^2
same,Cumulative amount of permeated nitroglycerin,"[4]; With polymer membrane of the present invention, 6 hr",185 μg/cm^2
same,Cumulative amount of permeated nitroglycerin,"[4]; With polymer membrane of the present invention, 8 hr",274 μg/cm^2
same,Cumulative amount of permeated nitroglycerin,"[4]; With polymer membrane of the present invention, 10 hr",365 μg/cm^2
same,Cumulative amount of permeated nitroglycerin,"[4]; Without polymer membrane (skin only), 2 h",8 μg/cm^2
same,Cumulative amount of permeated nitroglycerin,"[4]; Without polymer membrane (skin only), 4 hr",44 μg/cm^2
same,Cumulative amount of permeated nitroglycerin,"[4]; Without polymer membrane (skin only), 6 hr",101 μg/cm^2
same,Cumulative amount of permeated nitroglycerin,"[4]; Without polymer membrane (skin only), 8 hr",154 μg/cm^2
same,Cumulative amount of permeated nitroglycerin,"[4]; Without polymer membrane (skin only), 10 hr",218 μg/cm^2
